# Assay results from US20240174618A1, “SUBSTITUTED (2-HETEROARYLOXYPHENYL)SULFONATES, SALTS THEREOF AND THEIR USE AS HERBICIDAL AGENTS” (Bayer Aktiengesellschaft, priority 2021, published 2024).
# How the values were obtained:
# Assay type in all cases: in vivo
# [1] = system: Setaria viridis (SETVI); assay: A. Herbicidal pre-emergence efficacy, SETVI
# Description: (§1) Seeds of mono- and dicotyledonous weed plants were placed in plastic pots in sandy loam soil (doubly sown with one species each of mono- or dicotyledonous weed plants per pot) and covered with soil. The compounds of the invention, formulated in the form of wettable powders (WP) or as emulsion concentrates (EC), were then applied onto the surface of the covering soil as aqueous suspension or emulsion with addition of 0.5% additive at a water application rate of 600 liters per hectare (converted). After the treatment, the pots were placed in a greenhouse and kept under good growth conditions for the test plants. After about 3 weeks, the efficacy of the preparations was scored visually in comparison with untreated controls as percentages.
# (§2) For example, • 100% efficacy=plants have died, • 0% efficacy=like untreated control plants.
# (§3) Tables A1a to A12c below show the effects of selected compounds of the general formula (I) according to table 1 on various harmful plants at an application rate corresponding to 1280 g/ha or less, which were obtained by the experimental procedure mentioned above.
# [2] = system: Digitaria sanguinalis (DIGSA); assay: B. Herbicidal post-emergence efficacy, DIGSA; conditions: 1280 g/ha, rated visually after about 3 weeks
# Description: (§4) Seeds of mono- and dicotyledonous weed plants were placed in plastic pots in sandy loam soil (doubly sown with in each case one species of mono- or dicotyledonous weed plants per pot), covered with soil and cultivated in a greenhouse under controlled growth conditions. 2 to 3 weeks after sowing, the test plants were treated at the one-leaf stage. The compounds of the invention, formulated in the form of wettable powders (WP) or as emulsion concentrates (EC), were applied onto the green parts of the plants as aqueous suspension or emulsion with addition of 0.5% additive at a water application rate of 600 liters per hectare (converted). After the test plants had been kept in the greenhouse under optimum growth conditions for about 3 weeks, the activity of the preparations was rated visually in comparison to untreated controls.
# (§5) For example, • 100% efficacy=plants have died, • 0% efficacy=like untreated control plants
# (§6) Tables B1a to B12c below show the effects of selected inventive compounds of the general formula (I) according to table 1 on various harmful plants at an application rate corresponding to 1280 g/ha or less, which were obtained by the experimental procedure mentioned above.
# [3] = system: Kochia scoparia (KCHSC); assay: A. Herbicidal pre-emergence efficacy, KCHSC; conditions: pre-emergence
# Description: as §1, §2, §3
# [4] = system: Digitaria sanguinalis (DIGSA); assay: A. Herbicidal pre-emergence efficacy, DIGSA; conditions: scored visually after about 3 weeks vs untreated controls
# Description: as §1, §2, §3
# [5] = system: Veronica persica (VERPE); assay: B. Herbicidal post-emergence efficacy, VERPE
# Description: as §4, §5, §6
# [6] = system: Echinochloa crus-galli (ECHCG); assay: A. Herbicidal pre-emergence efficacy, ECHCG; conditions: scored visually after about 3 weeks vs untreated controls
# Description: as §1, §2, §3
# [7] = system: Echinochloa crus-galli (ECHCG); assay: B. Herbicidal post-emergence efficacy, ECHCG; conditions: rated visually after about 3 weeks
# Description: as §4, §5, §6
# [8] = system: Kochia scoparia (KCHSC); assay: B. Herbicidal post-emergence efficacy, KCHSC; conditions: for Post-emergence efficacy against KCHSC in %: rated visually after about 3 weeks; for Post-emergence efficacy against KCHSC: 1280 g/ha
# Description: as §4, §5, §6
# [9] = system: Amaranthus retroflexus (AMARE); assay: B. Herbicidal post-emergence efficacy, AMARE
# Description: as §4, §5, §6
# [10] = system: Veronica persica (VERPE); assay: A. Herbicidal pre-emergence efficacy, VERPE
# Description: as §1, §2, §3
# [11] = system: Poa annua (POAAN); assay: A. Herbicidal pre-emergence efficacy, POAAN
# Description: as §1, §2, §3
# [12] = system: Abutilon theophrasti (ABUTH); assay: B. Herbicidal post-emergence efficacy, ABUTH; conditions: rated visually after about 3 weeks
# Description: as §4, §5, §6
# [13] = system: Stellaria media (STEME); assay: B. Herbicidal post-emergence efficacy, STEME
# Description: as §4, §5, §6
# [14] = system: Amaranthus retroflexus (AMARE); assay: A. Herbicidal pre-emergence efficacy, AMARE
# Description: as §1, §2, §3
# [15] = system: Stellaria media (STEME); assay: A. Herbicidal pre-emergence efficacy, STEME
# Description: as §1, §2, §3
# [16] = system: Lolium rigidum (LOLRI); assay: A. Herbicidal pre-emergence efficacy, LOLRI
# Description: as §1, §2, §3
# [17] = system: Abutilon theophrasti (ABUTH); assay: A. Herbicidal pre-emergence efficacy, ABUTH; conditions: scored visually after about 3 weeks vs untreated controls
# Description: as §1, §2, §3
# [18] = system: Matricaria inodora (MATIN); assay: A. Herbicidal pre-emergence efficacy, MATIN
# Description: as §1, §2, §3
# [19] = system: Poa annua (POAAN); assay: B. Herbicidal post-emergence efficacy, POAAN
# Description: as §4, §5, §6
# [20] = pre-emergence, dosage 1280 g/ha
smiles,measurement,setting,value
O=S(=O)(CCCC(F)(F)F)Oc1ccccc1Oc1ccc(Cl)cn1 [Example I-26],Pre-emergence efficacy against SETVI,[1]; dosage 320 g/ha,90%
same,Pre-emergence efficacy against SETVI,[1]; dosage 1280 g/ha,100%
same,Post-emergence efficacy against DIGSA in %,[2],90%
same,Pre-emergence efficacy against KCHSC,[3]; dosage 1280 g/ha,90%
same,Pre-emergence efficacy against DIGSA,[4]; 1280 g/ha,100%
same,Post-emergence efficacy against VERPE,[5]; 320 g/ha,90%
same,Post-emergence efficacy against VERPE,[5]; 1280 g/ha,90%
same,Pre-emergence efficacy against ECHCG,[6]; 1280 g/ha,90%
same,Post-emergence efficacy against ECHCG in %,[7]; 1280 g/ha,90%
same,Post-emergence efficacy against KCHSC in %,[8]; 320 g/ha,90%
same,Post-emergence efficacy against KCHSC,[8],90%
same,Post-emergence efficacy against AMARE,[9]; 320 g/ha,90%
same,Post-emergence efficacy against AMARE,[9]; 1280 g/ha,90%
same,Pre-emergence efficacy against VERPE in %,[10]; 1280 g/ha,100%
same,Pre-emergence efficacy against POAAN,[11]; dosage 320 g/ha,90%
same,Pre-emergence efficacy against POAAN,[11]; dosage 1280 g/ha,100%
same,Post-emergence efficacy against ABUTH in %,[12]; 1280 g/ha,90%
same,Post-emergence efficacy against STEME,[13]; 1280 g/ha,90%
same,Pre-emergence efficacy against AMARE in %,[14]; 320 g/ha,90%
same,Pre-emergence efficacy against AMARE in %,[14]; 1280 g/ha,100%
same,Pre-emergence efficacy against STEME,[15]; dosage 1280 g/ha,90%
O=S(=O)(CCCC(F)(F)F)Oc1c(Br)cccc1Oc1ncc(Cl)cn1 [Example I-30],Pre-emergence efficacy against SETVI,[1]; dosage 80 g/ha,90%
same,Pre-emergence efficacy against SETVI,[1]; dosage 320 g/ha,100%
same,Pre-emergence efficacy against SETVI,[1]; dosage 1280 g/ha,100%
same,Post-emergence efficacy against DIGSA in %,[2],90%
same,Pre-emergence efficacy against LOLRI,[16]; dosage 320 g/ha,90%
same,Pre-emergence efficacy against LOLRI,[16]; dosage 1280 g/ha,100%
same,Pre-emergence efficacy against KCHSC,[3]; dosage 320 g/ha,100%
same,Pre-emergence efficacy against KCHSC,[3]; dosage 1280 g/ha,100%
same,Pre-emergence efficacy against DIGSA,[4]; 320 g/ha,100%
same,Pre-emergence efficacy against DIGSA,[4]; 1280 g/ha,100%
same,Pre-emergence efficacy against ABUTH,[17]; 320 g/ha,90%
same,Pre-emergence efficacy against ABUTH,[17]; 1280 g/ha,100%
same,Pre-emergence efficacy against MATIN,[18]; [20],100%
same,Post-emergence efficacy against VERPE,[5]; 80 g/ha,90%
same,Post-emergence efficacy against VERPE,[5]; 320 g/ha,100%
same,Post-emergence efficacy against VERPE,[5]; 1280 g/ha,100%
same,Pre-emergence efficacy against ECHCG,[6]; 320 g/ha,100%
same,Pre-emergence efficacy against ECHCG,[6]; 1280 g/ha,100%
same,Post-emergence efficacy against ECHCG in %,[7]; 320 g/ha,90%
same,Post-emergence efficacy against ECHCG in %,[7]; 1280 g/ha,90%
same,Post-emergence efficacy against KCHSC in %,[8]; 80 g/ha,100%
same,Post-emergence efficacy against KCHSC in %,[8]; 320 g/ha,100%
same,Post-emergence efficacy against KCHSC,[8],100%
same,Post-emergence efficacy against AMARE,[9]; 80 g/ha,100%
same,Post-emergence efficacy against AMARE,[9]; 320 g/ha,100%
same,Post-emergence efficacy against AMARE,[9]; 1280 g/ha,100%
same,Pre-emergence efficacy against VERPE in %,[10]; 320 g/ha,100%
same,Pre-emergence efficacy against VERPE in %,[10]; 1280 g/ha,100%
same,Pre-emergence efficacy against POAAN,[11]; dosage 80 g/ha,90%
same,Pre-emergence efficacy against POAAN,[11]; dosage 320 g/ha,100%
same,Pre-emergence efficacy against POAAN,[11]; dosage 1280 g/ha,100%
same,Post-emergence efficacy against POAAN,[19]; 320 g/ha,90%
same,Post-emergence efficacy against POAAN,[19]; 1280 g/ha,100%
same,Post-emergence efficacy against ABUTH in %,[12]; 80 g/ha,90%
same,Post-emergence efficacy against ABUTH in %,[12]; 320 g/ha,90%
same,Post-emergence efficacy against ABUTH in %,[12]; 1280 g/ha,100%
same,Post-emergence efficacy against STEME,[13]; 80 g/ha,100%
same,Post-emergence efficacy against STEME,[13]; 320 g/ha,100%
same,Post-emergence efficacy against STEME,[13]; 1280 g/ha,100%
same,Pre-emergence efficacy against AMARE in %,[14]; 80 g/ha,100%
same,Pre-emergence efficacy against AMARE in %,[14]; 320 g/ha,100%
same,Pre-emergence efficacy against AMARE in %,[14]; 1280 g/ha,100%
same,Pre-emergence efficacy against STEME,[15]; dosage 80 g/ha,100%
same,Pre-emergence efficacy against STEME,[15]; dosage 320 g/ha,100%
same,Pre-emergence efficacy against STEME,[15]; dosage 1280 g/ha,100%
O=S(=O)(CCC1CC1(Cl)Cl)Oc1c(F)cccc1Oc1ncc(Cl)cn1 (stereo not shown) [Example I-51],Pre-emergence efficacy against SETVI,[1]; dosage 320 g/ha,90%
same,Pre-emergence efficacy against SETVI,[1]; dosage 1280 g/ha,90%
same,Pre-emergence efficacy against LOLRI,[16]; dosage 1280 g/ha,90%
same,Pre-emergence efficacy against KCHSC,[3]; dosage 1280 g/ha,100%
same,Pre-emergence efficacy against DIGSA,[4]; 320 g/ha,90%
same,Pre-emergence efficacy against DIGSA,[4]; 1280 g/ha,100%
same,Pre-emergence efficacy against MATIN,"[18]; 320 g/ha, scored visually after about 3 weeks vs untreated controls",90%
same,Pre-emergence efficacy against MATIN,[18]; [20],90%
same,Post-emergence efficacy against VERPE,[5]; 1280 g/ha,90%
same,Pre-emergence efficacy against ECHCG,[6]; 1280 g/ha,90%
same,Post-emergence efficacy against ECHCG in %,[7]; 1280 g/ha,90%
same,Post-emergence efficacy against KCHSC,[8],90%
same,Post-emergence efficacy against AMARE,[9]; 80 g/ha,90%
same,Post-emergence efficacy against AMARE,[9]; 320 g/ha,90%
same,Post-emergence efficacy against AMARE,[9]; 1280 g/ha,90%
same,Pre-emergence efficacy against VERPE in %,[10]; 1280 g/ha,100%
same,Pre-emergence efficacy against POAAN,[11]; dosage 1280 g/ha,100%
same,Post-emergence efficacy against POAAN,[19]; 1280 g/ha,90%
same,Post-emergence efficacy against ABUTH in %,[12]; 320 g/ha,90%
same,Post-emergence efficacy against ABUTH in %,[12]; 1280 g/ha,90%
same,Post-emergence efficacy against STEME,[13]; 80 g/ha,90%
same,Post-emergence efficacy against STEME,[13]; 320 g/ha,90%
same,Post-emergence efficacy against STEME,[13]; 1280 g/ha,90%
same,Pre-emergence efficacy against AMARE in %,[14]; 80 g/ha,90%
same,Pre-emergence efficacy against AMARE in %,[14]; 320 g/ha,100%
same,Pre-emergence efficacy against AMARE in %,[14]; 1280 g/ha,100%
same,Pre-emergence efficacy against STEME,[15]; dosage 320 g/ha,90%
same,Pre-emergence efficacy against STEME,[15]; dosage 1280 g/ha,100%
